Results taken from patent publication US20120295907A1, “INSECTICIDAL COMPOUNDS” (SYNGENTA CROP PROTECTION, LLC, priority 2009, published 2012).
Where two headings read alike, the source gives them in different places.

What was measured:
Assay type in all cases: in vivo
Heliothis virescens = Heliothis virescens (Tobacco Budworm) egg test on artificial diet; settings: 96 h, 200 ppm (concentration in well 18 ppm), eggs 0-24 h old on artificial diet, 4 days, egg mortality, larval mortality, growth regulation
Tetranychus urticae = Tetranychus urticae (Two-Spotted Spider Mite) bean leaf disc spray test; settings: foliar, 192 h, read-out: control of Tetranychus urticae
Plutella xylostella = Plutella xylostella (Diamond Back Moth) artificial diet MTP test; settings: 144 h, 200 ppm (concentration in well 18 ppm), L2 larvae, 6 days, larval mortality, growth regulation
Spodoptera littoralis = Spodoptera littoralis (Egyptian Cotton Leafworm) cotton leaf disc spray test; settings: foliar, 72 h, 200 ppm spray on cotton leaf discs, L1 larvae, mortality, feeding behavior, growth regulation 3 DAT
Diabrotica balteata = Diabrotica balteata (Corn Root Worm) artificial diet MTP test; settings: 120 h, 200 ppm (concentration in well 18 ppm), L2 larvae, 5 days, larval mortality, growth regulation
[1] = 200 ppm spray on bean leaf discs, mite populations of mixed ages, 8 days, egg, larval and adult mortality

Measured: pest or weed control at 200 ppm

COc1c(NC(=O)c2ccc([N+](=O)[O-])cc2Cl)cccc1C(=O)Nc1c(Cl)cc(C(F)(C(F)(F)F)C(F)(F)C(F)(F)F)cc1Br (stereo not drawn) [B11]
≥ 80%: Heliothis virescens | Tetranychus urticae; [1] | Plutella xylostella | Spodoptera littoralis

COc1c(NC(=O)c2ccc(OC(F)(F)F)cc2)cccc1C(=O)Nc1c(Cl)cc(C(F)(C(F)(F)F)C(F)(F)C(F)(F)F)cc1Br (stereo not drawn) [B13]
≥ 80%: Heliothis virescens | Tetranychus urticae; [1] | Plutella xylostella | Spodoptera littoralis

COc1c(NC(=O)c2ccc(F)cc2F)cccc1C(=O)Nc1c(Cl)cc(C(F)(C(F)(F)F)C(F)(F)C(F)(F)F)cc1Br (stereo not drawn) [B23]
≥ 80%: Heliothis virescens | Tetranychus urticae; [1] | Plutella xylostella | Spodoptera littoralis

COc1c(NC(=O)c2ccc([N+](=O)[O-])o2)cccc1C(=O)Nc1c(Cl)cc(C(F)(C(F)(F)F)C(F)(F)C(F)(F)F)cc1Br (stereo not drawn) [B61]
≥ 80%: Heliothis virescens | Tetranychus urticae; [1] | Diabrotica balteata | Plutella xylostella | Spodoptera littoralis

COc1c(NC(=O)c2cccc([N+](=O)[O-])c2C)cccc1C(=O)Nc1c(Cl)cc(C(F)(C(F)(F)F)C(F)(F)C(F)(F)F)cc1Br (stereo not drawn) [B69]
≥ 80%: Heliothis virescens | Tetranychus urticae; [1] | Diabrotica balteata | Plutella xylostella | Spodoptera littoralis

COc1c(NC(=O)c2sc(C)nc2C)cccc1C(=O)Nc1c(Cl)cc(C(F)(C(F)(F)F)C(F)(F)C(F)(F)F)cc1Br (stereo not drawn) [B96]
≥ 80%: Heliothis virescens | Tetranychus urticae; [1] | Diabrotica balteata | Plutella xylostella | Spodoptera littoralis

COc1c(NC(=O)c2sc(C(F)(F)F)nc2C)cccc1C(=O)Nc1c(Cl)cc(C(F)(C(F)(F)F)C(F)(F)C(F)(F)F)cc1Br (stereo not drawn) [B104]
≥ 80%: Heliothis virescens | Tetranychus urticae; [1] | Plutella xylostella | Spodoptera littoralis

COc1c(NC(=O)c2ccc(Br)cc2C)cccc1C(=O)Nc1c(Cl)cc(C(F)(C(F)(F)F)C(F)(F)C(F)(F)F)cc1Br (stereo not drawn) [B138]
≥ 80%: Heliothis virescens | Tetranychus urticae; [1] | Plutella xylostella | Spodoptera littoralis

COc1c(NC(=O)c2ccc(Br)c(OC)c2C)cccc1C(=O)Nc1c(Cl)cc(C(F)(C(F)(F)F)C(F)(F)C(F)(F)F)cc1Br (stereo not drawn) [B139]
≥ 80%: Heliothis virescens | Tetranychus urticae; [1] | Plutella xylostella | Spodoptera littoralis

COc1c(NC(=O)c2c(Cl)cccc2Cl)cccc1C(=O)Nc1c(Cl)cc(C(F)(C(F)(F)F)C(F)(F)C(F)(F)F)cc1Br (stereo not drawn) [B158]
≥ 80%: Heliothis virescens | Tetranychus urticae; [1] | Diabrotica balteata | Plutella xylostella | Spodoptera littoralis

COc1c(NC(=O)c2c(C)cc(Br)cc2Cl)cccc1C(=O)Nc1c(Cl)cc(C(F)(C(F)(F)F)C(F)(F)C(F)(F)F)cc1Br (stereo not drawn) [B159]
≥ 80%: Heliothis virescens | Tetranychus urticae; [1] | Diabrotica balteata | Plutella xylostella | Spodoptera littoralis

COc1c(NC(=O)c2ccc([N+](=O)[O-])c(Cl)c2)cccc1C(=O)Nc1c(Cl)cc(C(F)(C(F)(F)F)C(F)(F)C(F)(F)F)cc1Br (stereo not drawn) [B170]
≥ 80%: Heliothis virescens | Tetranychus urticae; [1] | Diabrotica balteata | Plutella xylostella | Spodoptera littoralis

COc1c(NC(=O)c2ccc([N+](=O)[O-])c(C(F)(F)F)c2)cccc1C(=O)Nc1c(Cl)cc(C(F)(C(F)(F)F)C(F)(F)C(F)(F)F)cc1Br (stereo not drawn) [B179]
≥ 80%: Heliothis virescens | Tetranychus urticae; [1] | Diabrotica balteata | Plutella xylostella | Spodoptera littoralis

COc1c(NC(=O)c2cccc([N+](=O)[O-])c2)cccc1C(=O)Nc1c(Cl)cc(C(F)(C(F)(F)F)C(F)(F)C(F)(F)F)cc1Br (stereo not drawn) [B193]
≥ 80%: Heliothis virescens | Tetranychus urticae; [1] | Plutella xylostella | Spodoptera littoralis

COc1c(NC(=O)c2cccnc2F)cccc1C(=O)Nc1c(Cl)cc(C(F)(C(F)(F)F)C(F)(F)C(F)(F)F)cc1Br (stereo not drawn) [B194]
≥ 80%: Heliothis virescens | Tetranychus urticae; [1] | Diabrotica balteata | Plutella xylostella | Spodoptera littoralis

COc1c(NC(=O)c2ccc([N+](=O)[O-])c([N+](=O)[O-])c2)cccc1C(=O)Nc1c(Cl)cc(C(F)(C(F)(F)F)C(F)(F)C(F)(F)F)cc1Br (stereo not drawn) [B195]
≥ 80%: Heliothis virescens | Tetranychus urticae | Plutella xylostella | Spodoptera littoralis

COc1c(NC(=O)c2ccc([N+](=O)[O-])cc2C)cccc1C(=O)Nc1c(Cl)cc(C(F)(C(F)(F)F)C(F)(F)C(F)(F)F)cc1Br (stereo not drawn) [B196]
≥ 80%: Tetranychus urticae; [1] | Plutella xylostella | Spodoptera littoralis

COc1c(NC(=O)c2ccc(C#N)cc2Cl)cccc1C(=O)Nc1c(Cl)cc(C(F)(C(F)(F)F)C(F)(F)C(F)(F)F)cc1Br (stereo not drawn) [B198]
≥ 80%: Heliothis virescens | Tetranychus urticae; [1] | Plutella xylostella | Spodoptera littoralis

COc1c(NC(=O)c2ccco2)cccc1C(=O)Nc1c(Cl)cc(C(F)(C(F)(F)F)C(F)(F)C(F)(F)F)cc1Cl (stereo not drawn) [C12]
≥ 80%: Heliothis virescens | Tetranychus urticae; [1] | Diabrotica balteata | Plutella xylostella | Spodoptera littoralis

COc1c(NC(=O)c2cc(F)c(C#N)cc2F)cccc1C(=O)Nc1c(Cl)cc(C(F)(C(F)(F)F)C(F)(F)F)cc1Cl [E24]
≥ 80%: Heliothis virescens | Tetranychus urticae; [1] | Diabrotica balteata | Plutella xylostella | Spodoptera littoralis

COc1c(NC(=O)c2ccccc2F)cccc1C(=O)Nc1c(C)cc(C(F)(C(F)(F)F)C(F)(F)C(F)(F)F)cc1C (stereo not drawn) [F1]
≥ 80%: Heliothis virescens | Tetranychus urticae; [1] | Diabrotica balteata | Plutella xylostella | Spodoptera littoralis

COc1c(NC(=O)c2ccc(OC(F)(F)F)cc2)cccc1C(=O)Nc1c(C)cc(C(F)(C(F)(F)F)C(F)(F)C(F)(F)F)cc1C (stereo not drawn) [F5]
≥ 80%: Heliothis virescens | Tetranychus urticae; [1] | Plutella xylostella | Spodoptera littoralis

COc1c(NC(=O)c2ccc(Cl)cc2Cl)cccc1C(=O)Nc1c(C)cc(C(F)(C(F)(F)F)C(F)(F)C(F)(F)F)cc1C (stereo not drawn) [F15]
≥ 80%: Heliothis virescens | Tetranychus urticae; [1] | Diabrotica balteata | Plutella xylostella | Spodoptera littoralis

COc1c(NC(=O)c2ccc(S(C)(=O)=O)cc2)cccc1C(=O)Nc1c(C)cc(C(F)(C(F)(F)F)C(F)(F)C(F)(F)F)cc1C (stereo not drawn) [F18]
≥ 80%: Heliothis virescens | Tetranychus urticae; [1] | Diabrotica balteata | Plutella xylostella | Spodoptera littoralis

COc1c(NC(=O)c2ccc([N+](=O)[O-])cc2C)cccc1C(=O)Nc1c(C)cc(C(F)(C(F)(F)F)C(F)(F)C(F)(F)F)cc1C (stereo not drawn) [F24]
≥ 80%: Heliothis virescens | Tetranychus urticae; [1] | Diabrotica balteata | Plutella xylostella | Spodoptera littoralis

COc1c(NC(=O)c2c(F)cc(F)cc2F)cccc1C(=O)Nc1c(C)cc(C(F)(C(F)(F)F)C(F)(F)C(F)(F)F)cc1C (stereo not drawn) [F25]
≥ 80%: Heliothis virescens | Tetranychus urticae; [1] | Diabrotica balteata | Plutella xylostella | Spodoptera littoralis

COc1c(NC(=O)c2ccc(F)cc2C)cccc1C(=O)Nc1c(C)cc(C(F)(C(F)(F)F)C(F)(F)C(F)(F)F)cc1C (stereo not drawn) [F27]
≥ 80%: Heliothis virescens | Tetranychus urticae; [1] | Diabrotica balteata | Plutella xylostella | Spodoptera littoralis

COc1c(NC(=O)c2ccc([N+](=O)[O-])cc2Cl)cccc1C(=O)Nc1c(C)cc(C(F)(C(F)(F)F)C(F)(F)C(F)(F)F)cc1C (stereo not drawn) [F28]
≥ 80%: Heliothis virescens | Tetranychus urticae; [1] | Diabrotica balteata | Spodoptera littoralis

COc1c(NC(=O)c2ccc(C#N)cc2C)cccc1C(=O)Nc1c(Cl)cc(C(F)(C(F)(F)F)C(F)(F)F)cc1Br [G1]
≥ 80%: Heliothis virescens | Tetranychus urticae; [1] | Diabrotica balteata | Plutella xylostella | Spodoptera littoralis

COc1c(NC(=O)c2ccc(C#N)cc2Cl)cccc1C(=O)Nc1c(Cl)cc(C(F)(C(F)(F)F)C(F)(F)F)cc1Br [G2]
≥ 80%: Heliothis virescens | Tetranychus urticae; [1] | Diabrotica balteata | Plutella xylostella | Spodoptera littoralis

CCc1cc(C(F)(C(F)(F)F)C(F)(F)F)cc(C)c1NC(=O)c1cccc(NC(=O)c2c(F)cc(C#N)cc2F)c1OC [J2]
≥ 80%: Heliothis virescens | Tetranychus urticae; [1] | Diabrotica balteata | Plutella xylostella
